pEC50, pKi: −log10 of the molar value.
Key:
[1] = biological target: Protein kinase C, PKC; classical/novel (Homo sapiens) (UniProt O94806+P17252+P05129+Q05655+P05771+Q02156+P24723+Q15139+Q04759); assay: Inhibition of PDBu activated protein kinase C at 1 nM; format: protein assay
Homo sapiens = species: Homo sapiens; assay: Inhibition of inositol triphosphate IP3 at 10 uM; format: functional
[2] = biological target: T1, Cysteinyl leukotriene receptor 1 (Homo sapiens) (UniProt Q9Y271); assay: Inhibition of leukotriene D4 at 1 nM
T1 sequence (whole entry): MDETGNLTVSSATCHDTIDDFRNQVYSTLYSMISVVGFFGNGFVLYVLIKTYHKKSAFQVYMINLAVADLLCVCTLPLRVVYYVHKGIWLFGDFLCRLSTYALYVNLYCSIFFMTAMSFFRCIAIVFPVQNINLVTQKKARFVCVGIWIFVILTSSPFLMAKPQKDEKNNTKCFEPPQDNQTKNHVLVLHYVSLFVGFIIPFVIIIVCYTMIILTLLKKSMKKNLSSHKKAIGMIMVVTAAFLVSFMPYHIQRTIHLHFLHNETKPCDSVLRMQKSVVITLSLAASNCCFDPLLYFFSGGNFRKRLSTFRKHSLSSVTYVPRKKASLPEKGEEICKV

[3] = biological target: Glutamate [NMDA] receptor (Homo sapiens) (UniProt Q05586+Q12879+Q13224+O15399+O60391+Q14957+Q8TCU5); assay: Inhibition of MK-801 site of glutamate receptor at 10 uM; format: protein-complex assay
[4] = biological target: Glutamate receptor ionotropic AMPA (Homo sapiens) (UniProt P48058+P42263+P42262+P42261); assay: Inhibition of AMPA receptor at 1 nM; format: protein-complex assay
[5] = Inhibitory activity at calcium activated potassium channel 6 at 10 uM
[6] = biological target: T2, GABA-A receptor; benzodiazepine site (Homo sapiens) (UniProt P14867+P18507+P48169+Q99928+P34903+Q8N1C3+P47869+P31644+Q16445); assay: Inhibition of central benzodiazepine site on GABAA receptor at 100 nM; format: protein-complex assay
[7] = biological target: T3, 5-hydroxytryptamine receptor 1A (Homo sapiens) (UniProt P08908); assay: Inhibition of forskolin activated adenylate cyclase at 100 nM; format: functional
T3 sequence (whole entry): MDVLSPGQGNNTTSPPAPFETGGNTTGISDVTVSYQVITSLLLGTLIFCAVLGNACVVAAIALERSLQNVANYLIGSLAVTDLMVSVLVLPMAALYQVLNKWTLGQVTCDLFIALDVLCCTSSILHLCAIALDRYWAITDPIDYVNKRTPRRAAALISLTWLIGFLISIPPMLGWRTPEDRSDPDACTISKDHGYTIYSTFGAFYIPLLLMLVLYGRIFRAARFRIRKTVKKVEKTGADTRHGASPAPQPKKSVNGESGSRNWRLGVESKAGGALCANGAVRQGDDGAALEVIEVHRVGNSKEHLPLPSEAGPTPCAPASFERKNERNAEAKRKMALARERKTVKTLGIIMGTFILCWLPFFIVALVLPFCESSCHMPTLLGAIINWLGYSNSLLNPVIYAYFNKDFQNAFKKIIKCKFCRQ

[8] = biological target: Adrenergic receptor beta (Homo sapiens) (UniProt P08588+P07550+P13945); assay: Inhibition of non selective binding to adrenergic beta receptor at 10 uM; format: protein assay
[9] = Inhibitory activity at calcium activated potassium channel 6 at 1 nM
[10] = biological target: 5-hydroxytryptamine receptor 2B (Homo sapiens, UniProt P41595); assay: biochemical
Description: Displacement of [125I]DOI from cloned human 5HT2B receptor expressed in CHO cells

[11] = biological target: Epidermal growth factor receptor (Homo sapiens) (UniProt P00533); assay: Inhibition of EGFR at 100 nM
[12] = biological target: Sodium-dependent serotonin transporter (Homo sapiens, UniProt P31645); assay: Inhibitory activity against SERT
[13] = biological target: T4, Alpha-2A adrenergic receptor (Homo sapiens, UniProt P08913); assay: Activity at adrenergic alpha-2A receptor expressed in human clonic adenocarcinoma HT29 cell by adenylyl cyclase assay; format: functional, cell-based, HT-29
T4 sequence (P08913 whole entry): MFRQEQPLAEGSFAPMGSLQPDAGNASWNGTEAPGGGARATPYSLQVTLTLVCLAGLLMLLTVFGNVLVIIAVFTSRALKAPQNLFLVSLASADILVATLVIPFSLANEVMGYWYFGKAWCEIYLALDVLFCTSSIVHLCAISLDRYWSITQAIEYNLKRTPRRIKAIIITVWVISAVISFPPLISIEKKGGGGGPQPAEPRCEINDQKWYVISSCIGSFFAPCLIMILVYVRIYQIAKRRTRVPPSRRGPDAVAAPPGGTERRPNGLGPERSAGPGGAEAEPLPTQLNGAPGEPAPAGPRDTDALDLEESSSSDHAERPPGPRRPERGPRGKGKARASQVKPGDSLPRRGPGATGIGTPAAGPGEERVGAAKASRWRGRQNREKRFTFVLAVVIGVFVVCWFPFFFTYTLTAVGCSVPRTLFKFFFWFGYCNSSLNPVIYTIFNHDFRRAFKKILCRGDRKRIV

[14] = Inhibition of non selective binding to VIP at 100 nM
[15] = Inhibitory activity at site 2 of sodium channel at 100 nM
[16] = biological target: 5-hydroxytryptamine receptor 6 (Homo sapiens, UniProt P50406); assay: Inhibitory activity against 5HT6 receptor
[17] = biological target: T5, 5-hydroxytryptamine receptor 2C (Rattus norvegicus) (UniProt P08909); assay: Activity against recombinant rat 5HT2C mediated intracellular calcium mobilization by FLIPR in SR3T3 cells
T5 sequence (whole entry): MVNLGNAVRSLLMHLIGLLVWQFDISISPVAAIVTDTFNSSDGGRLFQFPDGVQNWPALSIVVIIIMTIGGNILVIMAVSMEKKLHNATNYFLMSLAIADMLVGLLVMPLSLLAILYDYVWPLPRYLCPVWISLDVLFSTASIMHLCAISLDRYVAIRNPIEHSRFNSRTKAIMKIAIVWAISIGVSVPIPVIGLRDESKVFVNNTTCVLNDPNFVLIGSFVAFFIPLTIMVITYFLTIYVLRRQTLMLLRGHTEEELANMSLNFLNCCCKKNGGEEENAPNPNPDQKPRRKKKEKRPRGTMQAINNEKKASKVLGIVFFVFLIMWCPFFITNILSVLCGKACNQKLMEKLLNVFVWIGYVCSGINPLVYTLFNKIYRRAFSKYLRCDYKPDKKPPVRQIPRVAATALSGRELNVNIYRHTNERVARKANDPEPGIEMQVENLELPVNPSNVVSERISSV

[18] = biological target: T2, GABA-A receptor; benzodiazepine site (Homo sapiens); assay: Inhibition of central benzodiazepine site on GABAA receptor at 10 uM; format: protein-complex assay
[19] = biological target: T6, 5-hydroxytryptamine receptor 1A (Homo sapiens, UniProt P08908); assay: Displacement of [3H]8-OH-DPAT from recombinant human 5HT1A receptor expressed in CHO cells; format: cell-based
T6 sequence (P08908 whole entry): T3 sequence (whole entry)

[20] = biological target: 5-hydroxytryptamine receptor 7 (Homo sapiens, UniProt P34969); assay: Activity at 5HT7 receptor expressed in human corneal epithelial CEPI-17-CL4 cells by adenylyl cyclase assay; format: functional, cell-based, Cornea
Chain of 5-hydroxytryptamine receptor 7 (P34969 whole entry): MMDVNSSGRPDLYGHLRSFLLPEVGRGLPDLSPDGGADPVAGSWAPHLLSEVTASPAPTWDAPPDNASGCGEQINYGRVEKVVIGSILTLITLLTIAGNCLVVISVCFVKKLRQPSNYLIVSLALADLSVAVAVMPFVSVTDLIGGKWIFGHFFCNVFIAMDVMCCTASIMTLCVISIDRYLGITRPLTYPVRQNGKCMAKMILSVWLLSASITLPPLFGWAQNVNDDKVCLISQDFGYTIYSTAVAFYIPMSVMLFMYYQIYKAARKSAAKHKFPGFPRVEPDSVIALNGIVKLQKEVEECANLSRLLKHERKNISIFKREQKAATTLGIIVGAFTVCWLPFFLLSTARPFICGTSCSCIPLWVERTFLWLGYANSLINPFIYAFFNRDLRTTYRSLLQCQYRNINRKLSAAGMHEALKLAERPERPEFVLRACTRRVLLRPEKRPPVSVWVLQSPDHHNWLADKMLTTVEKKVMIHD

Chain of Epidermal growth factor receptor (Homo sapiens) (P00533 whole entry): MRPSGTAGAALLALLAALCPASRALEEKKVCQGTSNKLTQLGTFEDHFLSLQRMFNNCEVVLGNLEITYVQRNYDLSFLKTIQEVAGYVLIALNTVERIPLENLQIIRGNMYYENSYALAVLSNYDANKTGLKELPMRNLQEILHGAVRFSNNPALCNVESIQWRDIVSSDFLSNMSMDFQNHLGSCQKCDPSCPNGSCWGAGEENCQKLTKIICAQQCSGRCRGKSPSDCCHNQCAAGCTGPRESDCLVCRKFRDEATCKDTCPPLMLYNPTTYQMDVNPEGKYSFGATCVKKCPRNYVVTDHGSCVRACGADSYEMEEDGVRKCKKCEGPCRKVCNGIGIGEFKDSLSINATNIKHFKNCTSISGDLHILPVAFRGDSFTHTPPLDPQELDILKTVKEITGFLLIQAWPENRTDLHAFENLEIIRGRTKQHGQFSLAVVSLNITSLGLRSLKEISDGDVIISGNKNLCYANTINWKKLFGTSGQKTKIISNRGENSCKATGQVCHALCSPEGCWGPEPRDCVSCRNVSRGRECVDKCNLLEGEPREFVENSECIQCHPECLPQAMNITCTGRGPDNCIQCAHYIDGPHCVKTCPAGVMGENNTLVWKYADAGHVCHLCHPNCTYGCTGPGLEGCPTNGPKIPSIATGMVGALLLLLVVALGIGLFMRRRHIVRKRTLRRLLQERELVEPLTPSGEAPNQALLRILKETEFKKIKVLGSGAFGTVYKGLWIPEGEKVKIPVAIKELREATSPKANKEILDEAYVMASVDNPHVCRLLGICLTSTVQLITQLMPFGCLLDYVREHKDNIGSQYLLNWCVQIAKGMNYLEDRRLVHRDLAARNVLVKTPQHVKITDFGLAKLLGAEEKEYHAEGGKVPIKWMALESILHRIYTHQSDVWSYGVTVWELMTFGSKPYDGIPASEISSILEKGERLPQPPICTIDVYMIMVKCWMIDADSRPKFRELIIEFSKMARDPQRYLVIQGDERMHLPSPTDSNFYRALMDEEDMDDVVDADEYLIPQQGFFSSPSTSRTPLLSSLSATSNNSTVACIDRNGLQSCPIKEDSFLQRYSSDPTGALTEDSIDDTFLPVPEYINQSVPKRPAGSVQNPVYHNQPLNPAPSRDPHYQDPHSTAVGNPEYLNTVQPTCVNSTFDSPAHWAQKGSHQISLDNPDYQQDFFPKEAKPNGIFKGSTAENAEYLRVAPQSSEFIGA
Chain of Sodium-dependent serotonin transporter (P31645 whole entry): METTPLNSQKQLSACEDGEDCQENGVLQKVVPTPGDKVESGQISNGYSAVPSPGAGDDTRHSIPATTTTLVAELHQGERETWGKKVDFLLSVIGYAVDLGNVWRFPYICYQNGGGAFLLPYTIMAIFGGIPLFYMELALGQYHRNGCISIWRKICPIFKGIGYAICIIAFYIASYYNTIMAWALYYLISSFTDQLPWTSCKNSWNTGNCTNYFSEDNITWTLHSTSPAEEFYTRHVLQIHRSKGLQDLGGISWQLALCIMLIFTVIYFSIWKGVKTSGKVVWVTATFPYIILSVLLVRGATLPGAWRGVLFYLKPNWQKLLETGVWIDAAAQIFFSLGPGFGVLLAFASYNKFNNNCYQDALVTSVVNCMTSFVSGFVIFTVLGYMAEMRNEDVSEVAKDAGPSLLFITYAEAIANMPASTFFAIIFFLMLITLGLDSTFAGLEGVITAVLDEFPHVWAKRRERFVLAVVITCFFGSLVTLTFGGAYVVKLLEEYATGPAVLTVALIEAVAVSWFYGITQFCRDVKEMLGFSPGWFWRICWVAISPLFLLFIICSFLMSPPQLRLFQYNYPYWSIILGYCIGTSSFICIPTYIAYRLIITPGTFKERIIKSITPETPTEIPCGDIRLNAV
Chain of 5-hydroxytryptamine receptor 2B (P41595 whole entry): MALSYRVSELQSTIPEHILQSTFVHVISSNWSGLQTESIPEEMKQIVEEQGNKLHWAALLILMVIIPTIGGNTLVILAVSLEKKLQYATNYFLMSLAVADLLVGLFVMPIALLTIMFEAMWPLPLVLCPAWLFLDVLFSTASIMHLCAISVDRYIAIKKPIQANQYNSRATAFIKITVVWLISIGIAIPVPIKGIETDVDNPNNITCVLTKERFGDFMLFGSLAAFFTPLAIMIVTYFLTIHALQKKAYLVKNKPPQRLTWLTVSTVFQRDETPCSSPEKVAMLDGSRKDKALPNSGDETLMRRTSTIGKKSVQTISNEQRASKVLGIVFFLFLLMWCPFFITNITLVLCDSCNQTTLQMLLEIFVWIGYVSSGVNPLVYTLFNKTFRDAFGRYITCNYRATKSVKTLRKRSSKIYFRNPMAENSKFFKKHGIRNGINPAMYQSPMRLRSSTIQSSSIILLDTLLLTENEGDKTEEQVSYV
Chain of 5-hydroxytryptamine receptor 6 (P50406 whole entry): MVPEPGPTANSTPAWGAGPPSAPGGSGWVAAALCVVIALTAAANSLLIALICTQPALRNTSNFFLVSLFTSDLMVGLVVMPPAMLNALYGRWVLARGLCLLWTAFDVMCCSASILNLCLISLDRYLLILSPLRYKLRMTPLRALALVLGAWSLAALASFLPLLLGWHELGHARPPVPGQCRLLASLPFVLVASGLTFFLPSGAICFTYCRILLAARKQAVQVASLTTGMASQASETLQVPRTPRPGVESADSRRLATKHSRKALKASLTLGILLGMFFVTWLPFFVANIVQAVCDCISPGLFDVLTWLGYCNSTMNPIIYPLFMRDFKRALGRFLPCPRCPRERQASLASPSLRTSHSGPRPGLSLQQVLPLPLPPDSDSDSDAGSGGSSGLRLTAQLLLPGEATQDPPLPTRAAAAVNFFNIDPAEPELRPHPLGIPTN

SMILES: C[C@H](N)Cn1ncc2ccc(O)cc21
- inhibition [1]: 12.6%
- inhibition (Homo sapiens): 2.11%
- inhibition [2]: 2.65%
- inhibition [3]: 15.1%
- inhibition [4]: 9.31%
- inhibition [5]: -8.15%
- inhibition [6]: 18.8%
- inhibition [7]: -2.24%
- inhibition [8]: 30.4%
- inhibition [9]: 10.4%
- pKi [10]: 8.09
- inhibition [11]: 1.86%
- pKi [12]: < 5.00
- pEC50 [13]: < 5.00
- inhibition [14]: 5.41%
- inhibition [15]: 5.17%
- pKi [16]: < 5.00
- Emax [17]: 89%
- inhibition [18]: 22.8%
- pKi [19]: 6.85
- pEC50 [20]: 5.25

Reference: ChEMBL document CHEMBL1148572, “1-((S)-2-aminopropyl)-1H-indazol-6-ol: a potent peripherally acting 5-HT2 receptor agonist with ocular hypotensive activity” (J Med Chem, 2006)
